From US6930208B2, “3-Keto- or 3- oxime-ether-substituted benzoylcyclohexanediones” (Bayer CropScience GmbH, priority 2002, dated 2005)

How the values were obtained:
Test in all cases: Plant tolerance (greenhouse, post-emergence)
Assay type in all cases: in vivo
Settings in all cases: visual scoring four to five weeks after application
rice = test system: rice
Procedure: (§1) Seeds of mono- and dicotyledonous harmful plants are placed in sandy loam in cardboard pots, covered with soil and grown in the greenhouse under good growth conditions. 2 to 3 weeks after sowing, the test plants are treated in the three-leaf stage. The compounds according to the invention, which are formulated as wettable powders or as emulsion concentrates, are sprayed at various dosages onto the surface of the green plant parts at an application rate of 600 to 800 l of water per ha (converted). After the test plants have been left to stand in the greenhouse for 3 to 4 weeks under optimal growth conditions, the effect of the compounds is scored visually. The chosen compounds according to the invention have an outstanding activity against a broad spectrum of economically important monocotyledonous and dicotyledonous harmful plants.
(§2) In further greenhouse experiments, seeds of crop plants and of monocotyledonous and dicotyledonous harmful plants are placed in sandy loam, covered with soil and placed in the greenhouse until the plants have developed two to three true leaves. Then, they are treated with the compounds of the formula (I) according to the invention as described above under item 1. […] Thus, for example, the compounds of examples Nos. 4.16 and 4.98 cause, at a dosage of 320 g/ha, no damage in wheat, rice and maize. The compounds of examples Nos. 1.4, 1.8, 4.16, 4.19 and 4.98 caused, at 80 g/ha, no damage in wheat, rice and maize.

maize = test system: maize
Procedure: as §1, §2

wheat = test system: wheat
Procedure: as §1, §2

CCC(=O)COc1c(S(C)(=O)=O)ccc(C(=O)C2=C(O)CCCC2=O)c1Cl [Example 1.4]
no damage: damage in rice (rice; 80 g/ha) | damage in maize (maize; 80 g/ha) | damage in wheat (wheat; 80 g/ha)

CC1(C)CC(=O)C(C(=O)c2ccc(S(C)(=O)=O)c(OCC(=O)C(C)(C)C)c2Cl)=C(O)C1 [Example 1.8]
no damage: damage in rice (rice; 80 g/ha) | damage in maize (maize; 80 g/ha) | damage in wheat (wheat; 80 g/ha)

CCON=C(C)COc1c(S(C)(=O)=O)ccc(C(=O)C2=C(O)CCCC2=O)c1Cl [Example 4.16]
no damage: damage in rice (rice; 80 g/ha) | damage in rice (rice; 320 g/ha) | damage in maize (maize; 80 g/ha) | damage in maize (maize; 320 g/ha) | damage in wheat (wheat; 80 g/ha) | damage in wheat (wheat; 320 g/ha)

C=CCON=C(C)COc1c(S(C)(=O)=O)ccc(C(=O)C2=C(O)CCCC2=O)c1Cl [Example 4.19]
no damage: damage in rice (rice; 80 g/ha) | damage in maize (maize; 80 g/ha) | damage in wheat (wheat; 80 g/ha)

CCON=C(CC)COc1c(S(C)(=O)=O)ccc(C(=O)C2=C(O)CCCC2=O)c1Cl [Example 4.98]
no damage: damage in rice (rice; 80 g/ha) | damage in rice (rice; 320 g/ha) | damage in maize (maize; 80 g/ha) | damage in maize (maize; 320 g/ha) | damage in wheat (wheat; 80 g/ha) | damage in wheat (wheat; 320 g/ha)
